System: patients of the REDUCE-IT and earlier EPA placebo-controlled trials
Assay: Example 3: adverse events by risk ratio, icosapent ethyl vs placebo (candidate categories; infectious disease terms of interest)
Conditions: R-I

CC/C=C\C/C=C\C/C=C\C/C=C\C/C=C\CCCC(=O)OCC [icosapent ethyl, eicosapentaenoic acid ethyl ester]
NNT: Carotid bruit (AE table): 315 | NNT: Cholestasis (AE table): −1.67e+07 | NNT: Chrohn's Disease (AE table): 2045 | NNT: Cognitive Decline: Attention disorders and disturbances (AE table): −8362005 | NNT: Cognitive Decline: Cognitive and attention disorders and disturbances (AE table): −8362005 | NNT: Cough (AE table): −69394 | NNT: Decreased Appetite (AE table): −215 | NNT: Deep Venous Thromboembolism (AE table): 1364 | NNT: Depression: Depressed mood disorders and disturbances (AE table): −340 | NNT: Depression: Depressive disorders (AE table): −314 | NNT: Depression: Depressive disorders - Agitated depression (AE table): −2044 | NNT: Depression: Depressive disorders - Depression (AE table): −408 | NNT: Depression: Depressive disorders - Major depression (AE table): −2044 | NNT: Depression: Depressive disorders - Persistent depressive disorder (AE table): −4088 | NNT: Depression: Mood alterations - Depressed mood (AE table): −3344802 | NNT: Depression: Mood alterations - Depressive symptom (AE table): 4091 | NNT: Depression: Mood alterations with depressive symptoms (AE table): 4096 | NNT: Dermatitis psoriasiform (AE table): −4089 | NNT: Dermatitis, allergic (AE table): 454 | NNT: Diabetic Nephropathy (AE table): 4100 | NNT: ESRD (AE table): 4092 | NNT: Ear infection (AE table): 585 | NNT: Embolism and Thrombosis (AE table): −1358 | NNT: Emphysema (AE table): 511 | NNT: Epilepsy (AE table): −1.67e+07 | NNT: Erectile dysfunction (AE table): 232 | NNT: Furuncle (AE table): 818 | NNT: Gastroenteritis, viral (AE table): 372 | NNT: Gastroesophageal reflux (AE table): 682 | NNT: Gingivitis (AE table): 818 | NNT: Glomerulonephritis and Nephrotic Syndrome (AE table): 1023 | NNT: Guttate psoriasis (AE table): −4089 | NNT: Helicobacter infection (AE table): 1023 | NNT: Hepatitis C (AE table): −4089 | NNT: Herpes Zoster (AE table): 1371 | NNT: Herpes simplex (AE table): 1364 | NNT: Hyperglycemia (AE table): 186 | NNT: Hyperkalemia (AE table): 178 | NNT: Hypertension (AE table): 171 | NNT: Hypertensive Crisis (AE Table): 315 | NNT: Hypokalemia (AE table): −815 | NNT: Hypomagnesemia (AE table): 292 | NNT: Infected bite (AE table): 2046 | NNT: Influenza (AE table): 515 | NNT: Influenza like illness (AE table): 1024 | NNT: Jaundice cholestatic (AE table): −1022 | NNT: Large intestine polyps (AE table): 511 | NNT: Limb Fractures and Dislocations (AE table): 1024 | NNT: Lupus (AE table): 4090 | NNT: Microalbuminuria (AE table): 372 | NNT: Migraine (AE table): −584 | NNT: Mucosal inflammation (AE table): 2046 | NNT: Multiple Sclerosis (AE table): 4090 | NNT: Muscle spasms (AE table): 95 | NNT: NASH (AE table): 818 | NNT: NASH for b/l NFS >0.675 (AE table): 273 | NNT: NASH+Hepatic Steatosis for NFS >0.675 (AE table): 209 | NNT: Nasopharyngitis, Mild Severity (AE table): 516 | NNT: Nephrolithiasis (AE table): −1017 | NNT: Nephropathies (AE table): 455 | NNT: Nephrotic Syndrome (AE table): 4090 | NNT: Orthopnea (AE table): 1023 | NNT: PTSD (AE table): 4092 | NNT: Pancytopenia (AE table): 1023 | NNT: Pneumonia (AE table): 293 | NNT: Proteinuria (AE table): 455 | NNT: Psoriasis (AE table): −341 | NNT: Psoriatic Conditions (AE table): −292 | NNT: Psychosis: Psychotic disorder NEC (AE table): 4091 | NNT: Pulmonary Edema (AE table): 511 | NNT: Respiratory Failure (AE table): 2050 | NNT: Respiratory tract infection (AE table): 1368 | NNT: Rheumatoid Arthritis (AE table): 1363 | NNT: Rhinitis (AE table): 682 | NNT: Schizophrenia NEC (AE table): 4091 | NNT: Sepsis (AE table): 455 | NNT: Severe chronic obstructive pulmonary disease (AE table): 1365 | NNT: Severe dermatitis, allergic (AE table): 1363 | NNT: Severe gastroenteritis (AE table): 1023 | NNT: Severe sepsis (AE table): 585 | NNT: Severe systemic inflammatory response syndrome (AE table): 818 | NNT: Severe urinary tract infection (AE table): 585 | NNT: Systemic inflammatory response syndrome (AE table): 682 | NNT: Tooth infection (AE table): 455 | NNT: Ulcerative Colitis (AE table): 4090 | NNT: Upper respiratory tract infection (AE table): 516 | NNT: Vascular hypertensive disorder (AE table): 124 | NNT: Vulvovaginal mycotic infection (AE table): 682 | NNT: Wheezing (AE table): 315 | Risk Ratio (95% CI): ADHD (AE table): 1.000 (0.141 to 7.097) −1 | Risk Ratio (95% CI): Allergic sinusitis (AE table): 0.500 (0.092 to 2.729) 3 | Risk Ratio (95% CI): Alzheimer's Disease (AE table): 1.000 (0.290 to 3.452) −1 | Risk Ratio (95% CI): Asthma (AE table): 1.076 (0.742 to 1.560) −1 | Risk Ratio (95% CI): Atelectasis (AE table): 0.500 (0.243 to 1.030) 3 | Risk Ratio (95% CI): Bipolar Disease (AE table): 0.333 (0.035 to 3.204) 4 | Risk Ratio (95% CI): Blood CPK increased (AE table): 0.684 (0.485 to 0.964) 2 | Risk Ratio (95% CI): Blood glucose increased (AE table): 0.400 (0.126 to 1.275) 3 | Risk Ratio (95% CI): Bone Fractures (AE table): 2.000 (0.181 to 22.053) −3 | Risk Ratio (95% CI): Bronchiectasis (AE table): 0.500 (0.125 to 1.998) 3 | Risk Ratio (95% CI): Bronchitis chronic (AE table): 0.667 (0.273 to 1.630) 2 | Risk Ratio (95% CI): CKD (AE table): 1.123 (0.766 to 1.646) −1 | Risk Ratio (95% CI): COPD (AE table): 1.084 (0.837 to 1.405) −1 | Risk Ratio (95% CI): Carotid bruit (AE table): 0.435 (0.207 to 0.913) 3 | Risk Ratio (95% CI): Cholestasis (AE table): 1.000 (0.063 to 15.986) −1 | Risk Ratio (95% CI): Chrohn's Disease (AE table): 0.333 (0.035 to 3.204) 4 | Risk Ratio (95% CI): Cognitive Decline: Attention disorders and disturbances (AE table): 1.000 (0.141 to 7.097) −1
